Experimental data published in ChEMBL document CHEMBL1151016, “Synthesis and evaluation of 3-deoxy-D-manno-2-octulosonate-8-phosphate (KDO8P) synthase inhibitors” (Bioorg Med Chem Lett, 1997).

Test: The compound was tested for inhibitory activity against KDO 8-P synthase by using a KDO 8-P synthase enzymatic assay

| IC50 [mM] | Structure (SMILES) |
| --- | --- |
| 3.8 | O=C(O)C1=C[C@H](OCC(O)P(=O)(O)O)[C@H](O)[C@H](O)C1 (stereo partly drawn) |
| > 25 | O=C(O)C1=C[C@H](OCCP(=O)(O)O)[C@H](O)[C@H](O)C1 |
| 4.3 | O=P(O)(O)OC[C@H]1O[C@H](O)[C@H](O)[C@@H]1O |
